Results taken from US20230183239A1, “ECTONUCLEOTIDE PYROPHOSPHATASE-PHOSPHODIESTERASE 1 (ENPP-1) INHIBITORS AND USES THEREOF” (AbbVie Inc., priority 2017, published 2023).

Assays:
Type in all cases: biochemical
ENPP1 [1] = biological target: T1, ENPP1 (Homo sapiens, UniProt P22413); test: ENPP1 enzyme assay with AMP-pNP substrate (hydrolysis of ATP analog); conditions: AMP-pNP substrate (ATP analog); Ki from IC50 by Cheng-Prusoff; read-out: ENPP1 Inhibition _AMP-pNP: Ki
T1 sequence (P22413 1-925): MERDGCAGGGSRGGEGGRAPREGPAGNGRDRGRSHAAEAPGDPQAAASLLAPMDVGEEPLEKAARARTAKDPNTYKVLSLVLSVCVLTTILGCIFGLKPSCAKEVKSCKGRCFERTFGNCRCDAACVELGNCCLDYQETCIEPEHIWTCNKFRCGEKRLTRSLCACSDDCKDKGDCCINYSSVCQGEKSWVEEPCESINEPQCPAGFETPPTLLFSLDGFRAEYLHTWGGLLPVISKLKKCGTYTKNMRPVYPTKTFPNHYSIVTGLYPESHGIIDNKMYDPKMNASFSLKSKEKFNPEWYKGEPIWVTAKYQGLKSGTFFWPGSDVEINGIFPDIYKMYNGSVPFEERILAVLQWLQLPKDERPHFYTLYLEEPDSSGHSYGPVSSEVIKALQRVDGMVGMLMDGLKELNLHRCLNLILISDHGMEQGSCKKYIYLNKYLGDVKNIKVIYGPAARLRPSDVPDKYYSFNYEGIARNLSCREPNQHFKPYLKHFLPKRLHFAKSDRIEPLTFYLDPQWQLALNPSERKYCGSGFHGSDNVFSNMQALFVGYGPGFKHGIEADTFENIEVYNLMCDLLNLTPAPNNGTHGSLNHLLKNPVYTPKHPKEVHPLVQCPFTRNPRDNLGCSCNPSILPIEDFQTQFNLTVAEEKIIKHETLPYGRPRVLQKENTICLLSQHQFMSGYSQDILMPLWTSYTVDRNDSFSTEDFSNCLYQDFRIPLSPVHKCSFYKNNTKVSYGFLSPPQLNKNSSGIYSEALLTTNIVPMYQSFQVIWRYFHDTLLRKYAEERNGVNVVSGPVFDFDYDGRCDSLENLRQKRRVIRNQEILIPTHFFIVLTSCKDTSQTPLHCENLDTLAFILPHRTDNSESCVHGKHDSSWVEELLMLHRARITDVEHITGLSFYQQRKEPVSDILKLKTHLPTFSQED
Protocol: The ENPP1 assay with AMP-pNP substrate is conducted in a buffer containing 50 mM Tris-HCl (pH 8.5)/ 250 mM NaCl/0.5 mM CaCl2/1 µM ZnCl2/0.1% DMSO. Inhibitors are added at final concentrations ranging between 10 µM and 30 pM depending on the compound. Duplicate wells are run at each inhibitor concentration. The final assay volume is 40 µL and human recombinant ENPP1 is present at 60 ng/well. The assay is initiated by the addition of substrate (300 µM AMP-pNP final concentration), and incubated for 20 minutes at 37° C. […] Each assay plate also includes wells with no enzyme added (MIN OD) and wells with no inhibitor added (MAX OD). The percent inhibition of ENPP1 for each sample is then calculated as: […]
IC50 values of compounds were calculated by entering the percent inhibition values into a sigmoidal variable slope nonlinear regression model in GraphPad Prism® software.

ENPP1 [2] = biological target: T1, ENPP1; test: Indirect quantitation of 2',3'-cGAMP hydrolysis (AMP-Glo Assay kit); conditions: cGAMP substrate; Ki from IC50 by Cheng-Prusoff; read-out: ENPP1 Inhibition -cGAMP: Ki
ENPP1 [3] = biological target: T1, ENPP1; test: Substrate selectivity ratio, inhibition of cGAMP hydrolysis versus ATP hydrolysis; conditions: ratio Ki AMP-pNP / Ki cGAMP
Protocol: The selectivity ratios for inhibition of cGAMP hydrolysis versus ATP hydrolysis were then calculated as follows: […]

Ki (ENPP1 [1]) [µM]	Ki (ENPP1 [2]) [µM]	Substrate Selectivity: Ki_AMP-pNP/Ki_cGAMP (ENPP1 [3])	Structure (SMILES)
0.1 to 1	< 0.1	>13.0	COc1ccc2c(-c3ccc4c(c3)CN(S(N)(=O)=O)CC4)ccnc2c1 [Example 305, 7-(7-methoxyquinolin-4-yl)-3,4-dihydroisoquinoline-2(1H)-sulfonamide]
> 1	< 0.1	>138	COc1ccc2c(-c3ccc(CNS(N)(=O)=O)c(C)c3)ccnc2c1 [Example 374, N-(4-(7-methoxyquinolin-4-yl)-2-methylbenzyl) sulfamide]
0.1 to 1	< 0.1	79.4	COc1cc2ncnc(NC(C)c3ccc(NS(N)(=O)=O)cc3)c2cc1OC (stereo in doubt) [Example 253, (R)-N-(4-(1-((6,7-dimethoxyquinazolin-4-yl)amino)ethyl)phenyl)sulfamide]
< 0.1	< 0.1	67.2	COc1cc2ncc(F)c(-c3ccc(CNS(N)(=O)=O)cc3)c2cc1OC [Example 67, N-(4-(3-fluoro-6,7-dimethoxyquinolin-4-yl)benzyl)sulfamide]
> 1	< 0.1	> 72.3	COc1cc2c(N3CCC(CCNS(N)(=O)=O)CC3)c(C#N)cnc2cn1 [Example 216, N-(2-(1-(3-cyano-6-methoxy-1,7-naphthyridin-4-yl)piperidin-4-yl)ethyl)sulfamide]
0.1 to 1	< 0.1	49	COc1ccc2c(N3CCC4(CC3)CCN(S(N)(=O)=O)C4)ccnc2c1 [Example 363, 8-(7-methoxyquinolin-4-yl)-2,8-diazaspiro[4.5]decane-2-sulfonamide]
0.1 to 1	< 0.1	46	COc1ccc2c(-c3ccc4c(c3)CN(S(N)(=O)=O)C4)ccnc2c1 [Example 402, 5-(7-methoxyquinolin-4-yl)isoindoline-2-sulfonamide]
> 1	0.1 to 1	> 11.9	COc1cc2nccc(NCc3ccc(NS(N)(=O)=O)cc3)c2cc1OC [Example 180, N-(4-(((6,7-dimethoxyquinolin-4-yl)amino)methyl)phenyl)sulfamide]
0.1 to 1	< 0.1	49.0	COc1cc2ncc(C#N)c(-c3ccc(CNS(N)(=O)=O)cc3)c2cc1OC [Example 241, N-(4-(3-cyano-6,7-dimethoxyquinolin-4-yl)benzyl)sulfamide]
0.1 to 1	< 0.1	>31	COc1cc2ncc(C#N)c(-c3ccc(CNS(N)(=O)=O)cc3)c2cc1F [Example 395, N-(4-(3-cyano-6-fluoro-7-methoxyquinolin-4-yl)benzyl)sulfamide]
0.1 to 1	< 0.1	>43.2	COc1cc2nccc(Oc3ccc(NS(=O)(=O)c4ccccc4)cc3)c2cc1OC [Example 86, N-(4-((6,7-dimethoxyquinolin-4-yl)oxy)phenyl)benzenesulfonamide]
> 1	< 0.1	54.5	COc1cc2ncn(-c3ccc(CNS(N)(=O)=O)cc3)c2cc1OC [Example 120, N-(4-(5,6-dimethoxy-1H-benzo[d]imidazol-1-yl)benzyl)sulfamide]

Structure (SMILES)	Ki (ENPP1 [1]) [µM]	Ki (ENPP1 [2]) [µM]	Substrate Selectivity: Ki_AMP-pNP/Ki_cGAMP (ENPP1 [3])
COc1ccc2c(N3CCc4cc(NS(N)(=O)=O)ccc43)ccnc2c1 [Example 59, N-(1-(7-methoxyquinolin-4-yl)indolin-5-yl)sulfamide]	< 0.1	< 0.1	29.6
COc1ccc2c(-c3ccc(CNS(N)(=O)=O)c(F)c3)ccnc2c1 [Example 62, N-(2-fluoro-4-(7-methoxyquinolin-4-yl)benzyl)sulfamide]	< 0.1	< 0.1	16.1
